Laboratory results reported in article PMC12640663 (Chemmedchem, 2025).
“Also recorded” adds a separate entry of the source.

What was measured:
hPTP1B1–400 = target: T1, hPTP1B1–400 (Homo sapiens, UniProt P18031); test: Kinetic studies of PTP1B (hPTP1B1–400);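 also: enzyme kinetics run across a range of substrate and inhibitor levels, control lacking inhibitor, triplicate runs, parameters derived by fitting Michaelis–Menten style equations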
T1 sequence (P18031 1-400): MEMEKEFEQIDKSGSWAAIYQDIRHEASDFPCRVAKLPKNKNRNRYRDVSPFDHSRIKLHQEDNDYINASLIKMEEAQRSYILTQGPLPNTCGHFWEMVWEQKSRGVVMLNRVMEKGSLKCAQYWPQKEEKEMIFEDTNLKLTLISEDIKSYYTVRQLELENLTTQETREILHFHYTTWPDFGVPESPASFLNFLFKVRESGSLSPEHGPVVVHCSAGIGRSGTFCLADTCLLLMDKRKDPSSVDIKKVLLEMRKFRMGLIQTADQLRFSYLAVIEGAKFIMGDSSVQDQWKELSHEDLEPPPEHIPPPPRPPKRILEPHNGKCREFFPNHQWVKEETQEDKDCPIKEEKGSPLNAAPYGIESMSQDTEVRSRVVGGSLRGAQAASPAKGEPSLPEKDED
Protocol: Kinetic analyses were performed at various substrate and inhibitor concentrations.
The negative control was prepared with the enzyme and substrate in the absence of the inhibitor. Experiments were conducted in triplicate.^[ [30] ^] […] The kinetic parameters of enzyme inhibition, K m and V max, were determined by fitting the data to the Michaelis‐Menten model, Equation (3) (OriginPro 2018 (64‐bit) SR1). (3) y=VmaxX/Km+X´ where V max: is the maximum velocity, X: is the inhibitor concentration, K m: Michaelis constant.
(4) y=Vmax(X)/(Km/1+I/Ki)+X where V max: maximum velocity, X: substrate concentration, I: inhibitor concentration, K m: Michaelis constant, K i : inhibition constant.

[1] = system: insulin‐resistant HepG2 cells; test: Insulin‐resistant HepG2 model, western blotting of PTP1B and pAKT; format: cell-based; settings: 24 h, western blot
Protocol: Subsequently, we evaluated the same compounds in a HepG2 insulin‐resistant model.
Bar graphs represent the mean ± SEM of normalized values. The control levels were set at 1. T‐test significance *p < 0.05, when compared with control (DMSO). Statistical analyses were carried out using GraphPad Prism 8.0.
For the resistant insulin model using HepG2 cells, the following reagents were acquired from Sigma–Aldrich (Toluca, MEX, Mexico, and St. Louis, MO, USA): Insulin (I2643), Dulbecco's modified eagle's medium (DMEM) low glucose media (D5523), Trypsin‐EDTA solution (T4174), antibiotic‐antimycotic solution(A5955), dimethyl sulfoxide (DMSO‐D8418), sodium deoxycholate (D6750), triethylammonium bicarbonate buffer 1 M (TEAB‐T7408), glutaraldehyde 25% (G6275), acetic acid (695092), and crystal violet (C0775). The bicinchoninic acid protein quantitation kit (23225) and the Halt Cocktail with protease and phosphatase inhibitors (1861281) were acquired from ThermoFisherScientific. Fetal bovine serum (26140–079) was from Gibco. The chemiluminescent solution (170–5061) was acquired from Biorad. Rabbit anti‐PTP1B (5311S) and mouse anti‐β actin (3700S) primary antibodies were obtained from Cell Signaling, and secondary antibodies coupled with horseradish peroxidase were from Jackson laboratories (rabbit‐111−035, mouse‐115–035).
Treated cells with compounds were washed twice with 1 mL of PBS, and protein was extracted using 500 µL of a buffer solution containing 10% sodium deoxycholate in 10% TEAB, supplemented with a protease and phosphatase inhibitor cocktail. The extracts were heated to 80 °C for 5 min and disaggregated through passages with an insulin syringe. The cell extracts were centrifuged at 15,000 rpm for 15 min at 4 °C, and the supernatant was collected. Protein quantification was performed using the bicinchoninic acid assay method, and aliquots were prepared for western blotting. SDS/PAGE was conducted, and proteins were transferred onto a nitrocellulose membrane. The membrane was then blocked with 10% skimmed milk in TBST for 1 h and incubated overnight with primary antibodies (1:400 dilution). Secondary antibodies coupled to horseradish peroxidase were diluted 1:2000, and membranes were incubated for 1 h. The blots were documented using the ChemiDoc MP (Bio‐Rad), and densitometric analysis was performed using ImageJ (U.S. National Institutes of Health). Statistical analyses were carried out using GraphPad Prism 8.0.

TCPTP = target: T2, TCPTP (Homo sapiens, UniProt P17706); test: T‐cell protein tyrosine phosphatase (TCPTP) activity assay (p‐NPP); format: biochemical; settings: ± S.D; assessed up to 100 μM; read-out: TCPTP IC50
T2 sequence (P17706 1-415): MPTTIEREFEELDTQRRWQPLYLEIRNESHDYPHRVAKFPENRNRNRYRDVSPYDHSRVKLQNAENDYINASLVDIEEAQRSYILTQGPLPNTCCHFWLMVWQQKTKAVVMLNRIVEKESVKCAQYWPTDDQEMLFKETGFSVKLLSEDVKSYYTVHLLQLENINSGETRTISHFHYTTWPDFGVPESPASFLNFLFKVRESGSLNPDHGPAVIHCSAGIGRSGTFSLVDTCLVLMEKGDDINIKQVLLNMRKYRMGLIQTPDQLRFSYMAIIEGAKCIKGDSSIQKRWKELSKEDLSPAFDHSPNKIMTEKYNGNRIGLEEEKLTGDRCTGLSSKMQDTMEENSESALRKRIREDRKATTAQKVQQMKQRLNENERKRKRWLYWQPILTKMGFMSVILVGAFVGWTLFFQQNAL
Protocol: The effectiveness and safety of protein tyrosine phosphatase (PTP) inhibitors depend on their specificity. PTP1B and TCPTP serve different functions: PTP1B is involved in metabolism and cancer, while TCPTP regulates immune function. Inhibiting TCPTP could impact the immune response, whereas inhibiting PTP1B may benefit metabolic diseases without these side effects.^[ [20] ^, [34] ^, [35] ^] […] These compounds were assessed up to 100 μM (Table 1).
TCPTP enzyme reported by Mendoza et al. was used for this assay. […] Aliquots of 0–10 µL (triplicate) of the newly synthesized compounds, positive control, and solvent were taken. These were incubated with 85 µL of enzyme solution (Tris, 50 mM, pH 6.8, TCPTP) and 5 µL of substrate (p‐NPP, 10 mM) for 15 min at 37 °C.

[2] = ± S.D, hPTP1B1–400 with inhibitor

Ki (hPTP1B1–400; K i, ± S.D, hPTP1B1–400, p‐NPP 0.1 to 0.5 mM): 71 ± 8 nM
Inhibition type (hPTP1B1–400; hPTP1B1–400): uncompetitive inhibition
K m (hPTP1B1–400; [2]): 520 ± 70 µM
V max (hPTP1B1–400; [2]): 0.62 ± 0.05 mM/min
IC50 (TCPTP): > 100000 nM
Structure (SMILES): CC1(C(=O)O)CCC2(C)CCC3(C)C(=CC(=O)C4C5(C)Cc6c([nH]c7ccc(C(F)(F)F)cc67)C(C)(C)C5CCC43C)C2C1 (stereo not drawn) [Compound 3c]
AKT phosphorylation (pAKT) levels [1]: slight increase; also recorded: slightly increased pAKT levels
